Measurements taken from US20230357099A1, “PYRAZOLO [3,4-B] PYRIDINE-4-CARBOXAMIDE NITRIFICATION INHIBITOR” (EUROCHEM ANTWERPTEN, priority 2020, published 2023).

Legend:
[1] = tested on: agricultural soils (Moorslede and Sint-Laureins); assay: Greenhouse gas measurements from fertilized soil
Protocol: Two agricultural soils coming from fields in Moorslede and Sint-Laureins were used. Screw top vials were filled with 10 g soil. Vials were sealed with Parafilm and preincubated at 21° C. in the dark for 5 days. After pre-incubation, vials were ventilated using a fan. Then 100 µL of a 1 mM compound solution (10 % DMSO) was added, immediately followed by the addition of 100 µL 200 mM NH4Cl. Vials were closed gastight and 5 mL synthetic air was added to the headspace using a plastic syringe, followed by the transfer of 5 mL headspace to an evacuated 3 mL exetainer. Vials were incubated at 21° C. in the dark and background NO concentration was noted. At each sampling timepoint, 5 mL synthetic air was added again to the headspace using a plastic syringe, again followed by the transfer of 5 mL headspace to an evacuated 3 mL exetainer. Vials were ventilated and closed again, and new gas samples were transferred to exetainers like before. N2O in the exetainers were measured via gas chromatography (GC-14 B (Schimadzu) equipped with Haysep Q columns (same spec) and an ECD detector, He at c.a. 20 mL min, 70° C.). The CO2 and CH4 concentration in the 3 mL exetainer vials was measured using a GC (Trace-GC, Interscience) equipped with Haysep Q columns (80-100, ⅛″ divided in 2 part 0.25 and 2.0 m connected with a 6 port valve to allow backflush of water vapor) and a FID (CH4) and TCD (CO2). Carrier gas was He c.a. 20 mL/min kept at 90° C. NO concentration was measured directly by connecting a chemiluminescence NO detector (CLD 77 AM, eco physics) directly to the headspace using a needle.

[2] = tested on: ABIL (ammonia-binding liquid inoculum), nitrifying microbial enrichment containing both AOA and AOB; assay: Nitrification inhibition assay on ABIL (ammonium consumption); format: cell-based; conditions: 0% = as strong as 100 µM PTIO, 100% = no inhibition
[3] = tested on: Nitrososphaera viennensis; assay: Nitrification inhibition assay on Nitrososphaera viennensis (nitrite, Griess); format: cell-based, Nitrososphaera viennensis EN76T; conditions: 0% = as strong as 100 µM PTIO, 100% = no inhibition
Method in brief: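 N. viennensis EN76T cultures in FWM (pH 7.5, NH4Cl-supplemented), 5× concentrated, treated with compounds at 2.5 µM final (0.25% DMSO) and incubated 24 h at 42 °C. Nitrite measured by Griess absorbance at 540 nm against a standard curve. Relative nitrification normalized between DMSO (no compound) and 100 µM PTIO controls.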

## CC(C)c1cc(C(=O)N2CCSCC2)c2cnn(C(C)C)c2n1 [Example 2]
[1]; Moorslede soil
  N2O emissions compared to the DMSO control (in words): strongly reduced the emissions
  Cumulative emission at indicated timepoint [ppb], N2O, 4 h: 119 ppb
  Cumulative emission at indicated timepoint [ppb], N2O, 24 h: 834 ppb
  Cumulative emission at indicated timepoint [ppb], N2O, 48 h: 1616 ppb
  Cumulative emission at indicated timepoint [ppb], N2O, 72 h: 1875 ppb
  Cumulative emission at indicated timepoint [ppb], N2O, 99 h: 1875 ppb
  Cumulative emission at indicated timepoint [ppb], NO, 4 h: 256 ppb
  Cumulative emission at indicated timepoint [ppb], NO, 24 h: 611 ppb
  Cumulative emission at indicated timepoint [ppb], NO, 48 h: 1020 ppb
  Cumulative emission at indicated timepoint [ppb], NO, 72 h: 1189 ppb
  Cumulative emission at indicated timepoint [ppb], NO, 99 h: 1183 ppb
[1]; Sint-Laureins soil
  NO emissions compared to the DMSO or DMP control (in words): reduce NO emissions
  Cumulative emission at indicated timepoint [ppb], N2O, 4 h: 33 ppb
  Cumulative emission at indicated timepoint [ppb], N2O, 24 h: 498 ppb
  Cumulative emission at indicated timepoint [ppb], N2O, 48 h: 1074 ppb
  Cumulative emission at indicated timepoint [ppb], N2O, 72 h: 1562 ppb
  Cumulative emission at indicated timepoint [ppb], N2O, 99 h: 1703 ppb
  Cumulative emission at indicated timepoint [ppb], NO, 4 h: 81 ppb
  Cumulative emission at indicated timepoint [ppb], NO, 24 h: 201 ppb
  Cumulative emission at indicated timepoint [ppb], NO, 48 h: 371 ppb
  Cumulative emission at indicated timepoint [ppb], NO, 72 h: 547 ppb
  Cumulative emission at indicated timepoint [ppb], NO, 99 h: 600 ppb
[2]; 2 µM compound
  ABIL - relative nitrification (%) at 2 µM: 66%
[2]; 24 h, 10 µM compound, 24 h, read-out: ABIL - relative nitrification (%) at 10 µM
  activity at 10 µM: -31%
[3]; 0.5 µM compound
  N. viennensis - relative nitrification (%) at 0.5 µM: 100%
[3]; 5 µM compound
  N. viennensis - relative nitrification (%) at 5 µM: 75%
[3]; 25 µM compound
  N. viennensis - relative nitrification (%) at 25 µM: 0%
